{
  "source": "PubChem BioAssay AID1963435",
  "about": "(Molecular Pharmacology Branch, DTP, NCI, 2024)",
  "tested_on": "PANC-1 complex spheroid growth, percent test/control",
  "assay": "Anticancer human tumor PANC-1 cell line growth inhibition [Asc];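 also: spheroids exposed to agents for 7 days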;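 as to viability, T/C: percent viability relative to DMSO vehicle wells taken as 100%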",
  "conditions": "for viability, T/C: stronger effect = lower value",
  "outline": "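Complex spheroids combining tumor cells with HUVEC endothelial cells and human MSCs, at 37 degrees C, 5% CO2; agents tested alone or combined, half-log dilutions from at or near clinical Cmax, or 10 microM if Cmax unknown.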",
  "note": "Where “and” joins values, the source holds several entries; their conditions need not be identical. Identical values can stand only once.",
  "data": [
    {"smiles": "CCN1CCN(Cc2ccc(Nc3ncc(F)c(-c4cc(F)c5nc(C)n(C(C)C)c5c4)n3)nc2)CC1", "values": [
      {"measurement": "viability, T/C", "setting": "compound 0.00316 µM", "value": "98.9% and 103% and 108%"},
      {"measurement": "viability, T/C", "setting": "compound 0.01 µM", "value": "107% and 98.8% and 97.8%"},
      {"measurement": "viability, T/C", "setting": "compound 0.0316 µM", "value": "111% (2×) and 121%"},
      {"measurement": "viability, T/C", "setting": "compound 0.1 µM", "value": "114% and 116% and 118%"},
      {"measurement": "viability, T/C", "setting": "compound 0.316 µM", "value": "122% and 124% and 128%"},
      {"measurement": "viability, T/C", "setting": "compound 1 µM", "value": "135% and 128% and 142%"},
      {"measurement": "IC50", "setting": "curve of compound", "value": "> 1", "unit": "µM"}
    ]},
    {"smiles": "CCN1CCN(Cc2ccc(Nc3ncc(F)c(-c4cc(F)c5nc(C)n(C(C)C)c5c4)n3)nc2)CC1", "note": "+ CCN1C(C(=O)NC23CCC(C(=O)O)(CC2)CC3)C(c2cccc(Cl)c2F)C2(C(=O)Nc3cc(Cl)ccc32)C12CCCCC2", "values": [
      {"measurement": "IC50", "setting": "curve of first compound, second compound 0.00949 µM", "value": "> 1", "unit": "µM"},
      {"measurement": "IC50", "setting": "curve of first compound, second compound 0.03 µM", "value": "> 1", "unit": "µM"},
      {"measurement": "IC50", "setting": "curve of first compound, second compound 0.0949 µM", "value": "> 1", "unit": "µM"},
      {"measurement": "IC50", "setting": "curve of first compound, second compound 0.3 µM", "value": "> 1", "unit": "µM"},
      {"measurement": "IC50", "setting": "curve of first compound, second compound 0.949 µM", "value": "> 1", "unit": "µM"},
      {"measurement": "IC50", "setting": "curve of first compound, second compound 3 µM", "value": "> 1", "unit": "µM"},
      {"measurement": "viability, T/C", "setting": "second compound 0.00949 µM, first compound 0.00316 µM", "value": 112, "unit": "%"},
      {"measurement": "viability, T/C", "setting": "second compound 0.00949 µM, first compound 0.01 µM", "value": 102, "unit": "%"},
      {"measurement": "viability, T/C", "setting": "second compound 0.00949 µM, first compound 0.0316 µM", "value": 109, "unit": "%"},
      {"measurement": "viability, T/C", "setting": "second compound 0.00949 µM, first compound 0.1 µM", "value": 117, "unit": "%"},
      {"measurement": "viability, T/C", "setting": "second compound 0.00949 µM, first compound 0.316 µM", "value": 126, "unit": "%"},
      {"measurement": "viability, T/C", "setting": "second compound 0.00949 µM, first compound 1 µM", "value": 139, "unit": "%"},
      {"measurement": "viability, T/C", "setting": "second compound 0.03 µM, first compound 0.00316 µM", "value": 105, "unit": "%"},
      {"measurement": "viability, T/C", "setting": "second compound 0.03 µM, first compound 0.01 µM", "value": 97.8, "unit": "%"},
      {"measurement": "viability, T/C", "setting": "second compound 0.03 µM, first compound 0.0316 µM", "value": 114, "unit": "%"},
      {"measurement": "viability, T/C", "setting": "second compound 0.03 µM, first compound 0.1 µM", "value": 114, "unit": "%"},
      {"measurement": "viability, T/C", "setting": "second compound 0.03 µM, first compound 0.316 µM", "value": 131, "unit": "%"},
      {"measurement": "viability, T/C", "setting": "second compound 0.03 µM, first compound 1 µM", "value": 141, "unit": "%"},
      {"measurement": "viability, T/C", "setting": "second compound 0.0949 µM, first compound 0.00316 µM", "value": 108, "unit": "%"},
      {"measurement": "viability, T/C", "setting": "second compound 0.0949 µM, first compound 0.01 µM", "value": 108, "unit": "%"},
      {"measurement": "viability, T/C", "setting": "second compound 0.0949 µM, first compound 0.0316 µM", "value": 105, "unit": "%"},
      {"measurement": "viability, T/C", "setting": "second compound 0.0949 µM, first compound 0.1 µM", "value": 105, "unit": "%"},
      {"measurement": "viability, T/C", "setting": "second compound 0.0949 µM, first compound 0.316 µM", "value": 125, "unit": "%"},
      {"measurement": "viability, T/C", "setting": "second compound 0.0949 µM, first compound 1 µM", "value": 140, "unit": "%"},
      {"measurement": "viability, T/C", "setting": "second compound 0.3 µM, first compound 0.00316 µM", "value": 99.8, "unit": "%"},
      {"measurement": "viability, T/C", "setting": "second compound 0.3 µM, first compound 0.01 µM", "value": 131, "unit": "%"},
      {"measurement": "viability, T/C", "setting": "second compound 0.3 µM, first compound 0.0316 µM", "value": 110, "unit": "%"},
      {"measurement": "viability, T/C", "setting": "second compound 0.3 µM, first compound 0.1 µM", "value": 117, "unit": "%"},
      {"measurement": "viability, T/C", "setting": "second compound 0.3 µM, first compound 0.316 µM", "value": 124, "unit": "%"},
      {"measurement": "viability, T/C", "setting": "second compound 0.3 µM, first compound 1 µM", "value": 150, "unit": "%"},
      {"measurement": "viability, T/C", "setting": "second compound 0.949 µM, first compound 0.00316 µM", "value": 102, "unit": "%"},
      {"measurement": "viability, T/C", "setting": "second compound 0.949 µM, first compound 0.01 µM", "value": 119, "unit": "%"},
      {"measurement": "viability, T/C", "setting": "second compound 0.949 µM, first compound 0.0316 µM", "value": 121, "unit": "%"},
      {"measurement": "viability, T/C", "setting": "second compound 0.949 µM, first compound 0.1 µM", "value": 111, "unit": "%"},
      {"measurement": "viability, T/C", "setting": "second compound 0.949 µM, first compound 0.316 µM", "value": 128, "unit": "%"},
      {"measurement": "viability, T/C", "setting": "second compound 0.949 µM, first compound 1 µM", "value": 140, "unit": "%"},
      {"measurement": "viability, T/C", "setting": "second compound 3 µM, first compound 0.00316 µM", "value": 116, "unit": "%"},
      {"measurement": "viability, T/C", "setting": "second compound 3 µM, first compound 0.01 µM", "value": 125, "unit": "%"},
      {"measurement": "viability, T/C", "setting": "second compound 3 µM, first compound 0.0316 µM", "value": 118, "unit": "%"},
      {"measurement": "viability, T/C", "setting": "second compound 3 µM, first compound 0.1 µM", "value": 124, "unit": "%"},
      {"measurement": "viability, T/C", "setting": "second compound 3 µM, first compound 0.316 µM", "value": 131, "unit": "%"},
      {"measurement": "viability, T/C", "setting": "second compound 3 µM, first compound 1 µM", "value": 157, "unit": "%"}
    ]}
  ]
}
